Counter-ions that a name gives are not always drawn.
Legend:
Rats = experiment: Rat left anterior descending coronary artery ligation, histological examination of hearts; assay type: in vivo; conditions: 10 mg/kg daily intraperitoneal for 30 days before ligation and 14 days after
Procedure: Rats received a daily intraperitoneal dose of 10 mg/kg 3-[2-phenyl-2-oxoethyl]-4,5-dimethyl-thiazolium salt (compound A) (n=14) or placebo (n=15) for 30 days. The animals then underwent a thoracotomy and the left anterior descending coronary artery ligated. The chest was then closed and the animals allowed to recover for 14 days while continuing to be treated with compound A or placebo. The animals were then sacrificed and the hearts removed for histological examination. The weight of the infarcted tissue was 0.16±0.04 g for the placebo treated animals compared to 0.11±0.05 g for the compound A treated animals (p=0.04).

[1] = system: elderly patients with pulse pressures greater than 60 mm Hg; experiment: Phase Ia clinical trial; assay type: in vivo, human
From the text: When the heart pumps blood into the vascular system, the ability of the arteries to expand helps to push blood through the body. When arteries become stiff, as they do in the natural process of aging, the ability of the arteries to expand is diminished and also has consequences for the heart. The heart has to work harder to pump the blood into the stiff arteries, and eventually hypertrophies (enlarges in size) to accomplish this. A hypertrophied heart is an inefficient pump, and is one of the disorders that leads to congestive heart failure. […] The potential clinical benefit of this is to lessen the effort that the heart must expend to push blood throughout the body. The effect is also believed to contribute to preventing hypertrophy and subsequent inefficiency of the heart, which inefficiency would contribute to congestive heart failure.
Atherosclerosis is a disease that involves deposition of blood lipids in plaque in the arteries throughout the body. In coronary arteries, accumulation of plaque progressively leads to reduced coronary flow, with occlusion of the arteries causing focal death of cardiac tissue (myocardial infarction, heart attack). If the amount of tissue that dies is large enough, death ensures. […]

dog model for diabetes = experiment: Dog model for diabetes, indicators of ventricular elasticity; assay type: in vivo
From the text: (§1) Cardiovascular risk correlates more closely with the systolic and the pulse pressure than with the diastolic pressure. In diabetic patients, the cardiovascular risk profile of diabetic patients is strongly correlated to duration of diabetes, glycemic control and blood pressure. Structural matrix proteins contribute to the function of vessels and the heart, and changes in the physical behavior of cardiovascular walls are believed to be important determinants of circulatory function. In elderly individuals, the loss of compliance in the aorta leads to isolated systolic hypertension, which in turn expands the arterial wall and thereby diminishes the dynamic range of elasticity. […] Treatment with 3-[2-phenyl-2-oxoethyl]-4,5-dimethyl-thiazolium salt lead to a reduction in the mass of collagen in cardiovascular tissues.

[2] = system: rodents, canines and primates; experiment: In vivo studies of vascular stiffening and collagen mass in cardiovascular tissues
From the text: as §1

TGFbeta = experiment: In situ hybridization studies
From the text: as §1

Type IV collagen = experiment: In situ hybridization studies
From the text: as §1

In the case of Cc1sc[n+](CC(=O)c2ccccc2)c1C [compound A, 3-[2-phenyl-2-oxoethyl]-4,5-dimethyl-thiazolium salt], the “thickness of the ventricular wall in the infarcted zone” value (Rats) was 2.56±0.22 mm, the “weight of the infarcted tissue” value (Rats) was 0.11 ± 0.05 g and the “stiffness of arteries, as measured by the ratio of stroke volume (ml) to pulse pressure (mm Hg)” value ([1]; Phase Ia clinical trial) was “showed an ability to reverse the stiffness of arteries”. For the same compound, the pulse pressure ([1]; Phase Ia trial, elderly patients with pulse pressures greater than 60 mm Hg) was “reduced”, the end diastolic pressure (dog model for diabetes) was “returned to a value at about the mid-point between the disease impaired value and the value for control dogs” and the end diastolic volume (dog model for diabetes) was “returned to a value at about the mid-point between the disease impaired value and the value for control dogs”. The “mass of collagen in cardiovascular tissues” value ([2]; in vivo) was “reduction”, the vascular stiffening ([2]; in vivo studies in rodents, canines and primates) was “substantially ameliorating vascular stiffening” and the “expression of TGFbeta” value (TGFbeta) was “reduces”. The “expression of Type IV collagen” value (Type IV collagen) was “reduces”.

Reference: patent US20020107245A1, “Method for treating fibrotic diseases or other indications IVC” (priority 2000, published 2002)
